The assay addresses T1, Recombinant human ATX (Homo sapiens, UniProt Q13822).
T1 construct: made in house; host or cells: human embryonic kidney (HEK) cells
Put plainly: Assessing ATX inhibition: released choline, Amplex Red fluorescence. In kind it is biochemical. The conditions noted are these: ATX 10 nM, LPC 18:1 10 μM, pre-incubated with ATX at 37° C. for 20 minutes; Table 1, exemplified compounds; read-out: IC50. As to the method:
LPC (oleoyl (18:1)) was purchased from Avanti Polar Lipids (Alabaster; AL) and solubilized in methanol to 20 mM. Amplex Red was obtained from Invitrogen Life Technologies (Paisley, UK) and dissolved in DMSO to 10 mM. Choline oxidase and horseradish peroxidase (HRP) were obtained from Sigma Aldrich (Dorset, UK) and dissolved in HBSS to 20 U/ml and 200 U/ml respectively. All reagents were stored at −20° C. in single use aliquots. All experimental measurements were performed in assay buffer made up immediately prior to use (HBSS, 0.01% BSA essentially fatty acid free).
Recombinant human ATX was prepared at Novartis (Basel, CH) in a human embryonic kidney (HEK) cell preparation, and stored in single use aliquots of […] (26 μM) stocks stored at −80° C.
All experimental measurements were performed in black 384 well polystyrene (low volume, round bottom, Corning (3676)) plates. PerkinElmer EnVision (Fluorescence Intensity/Absorbance Monochromator) or Tecan Infinite 200 PRO series plate reader was used to detect change in fluorescent intensity.
ATX activity was determined by measurement of released choline in reactions containing ATX (10 nM), choline oxidase (0.1 U/ml), HRP (100 U/ml), amplex red (50 μM) and LPC 18:1 (10 μM). Compounds of the invention were prepared as 10 point serial dilutions from 1 μM in duplicate and pre-incubated with ATX at 37° C. for 20 minutes prior to the addition of remaining reagents. The liberated choline was measured from changes in fluorescence intensity (λex 530 nm, λem 590 nm) of the product resurofin at 37° C. every 2 minutes over a 40-minute period. ATX activity was measured as a slope of the linear portion of the progress curve, typically between 14 to 24 minutes.
Slope data was exported to Graphpad prism (Graphpad software, San Diego, Calif.) where data was fitted to equation 1.
Y=Bottom+(Top−Bottom)/(1+10̂((Log IC50−X)*HillSlope)) Equation 1: […]

IC50 data for 32 compounds are collected here from patent publication US20140171404A1, “Autotaxin inhibitors” (NOVARTIS AG, priority 2012, published 2014).

Usually IC50 stands for the concentration at which inhibition is half-maximal.

Turning to `CN(CCC1CCN(C(=O)OCc2cc(Cl)cc(Cl)c2)CC1)C(=O)c1cc(O)no1` [Example 1, 3,5-Dichlorobenzyl 4-(2-(3-hydroxy-N-methylisoxazole-5-carboxamido)ethyl) piperidine-1-carboxylate], the IC50 turned out to be 0.644 µM.

As for `COc1c(N(C)CCC2CCN(C(=O)OCc3cc(Cl)cc(Cl)c3)CC2)c(=O)c1=O` [Example 2], the IC50 came out at 0.248 µM.

As to `CCOc1c(NCCC2CCN(C(=O)OCc3cc(Cl)cc(Cl)c3)CC2)c(=O)c1=O` [Example 3], the IC50 is 0.445 µM.

Take `O=C(OCc1cc(Cl)cc(Cl)c1)N1CCC(CCNc2c(O)c(=O)c2=O)CC1` [Example 4]: the IC50 turned out to be 0.728 µM.

For the compound `CC1CC(CNC(=O)CCc2cc(O)no2)CCN1C(=O)OCc1cc(Cl)cc(Cl)c1` (centres unmarked) [Example 5], the IC50 is 0.313 µM.

As for `CN(CCC1CCN(C(=O)OCc2cc(Cl)cc(Cl)c2)CC1)C(=O)Cc1c[nH]nn1` [Example 6, 3,5-Dichlorobenzyl 4-(2-(N-methyl-2-(1H-1,2,3-triazol-4-yl)acetamido)ethyl)piperidine-1-carboxylate], the IC50 came to 0.062 µM.

With `O=C(Cc1c[nH]nn1)NCCC1CCN(C(=O)OCc2cc(Cl)cc(Cl)c2)CC1` [Example 7, 3,5-Dichlorobenzyl 4-(2-(2-(1H-1,2,3-triazol-4-yl)acetamido)ethyl)piperidine-1-carboxylate], the IC50 came to 0.028 µM.

For `Cc1oc(=O)[nH]c1C(=O)N(C)CCC1CCN(C(=O)OCc2cc(Cl)cc(Cl)c2)CC1` [Example 8, 3,5-Dichlorobenzyl 4-(2-(N,5-dimethyl-2-oxo-2,3-dihydrooxazole-4-carboxamido)ethyl)piperidine-1-carboxylate], the IC50 was determined as 0.36 µM.

`O=C(/C=C/c1c[nH]cn1)NC1CCN(C(=O)OCc2cc(Cl)cc(Cl)c2)CC1` [Example 9, (E)-3,5-Dichlorobenzyl 4-(3-(1H-imidazol-4-yl)acrylamido)piperidine-1-carboxylate]: the IC50 was 0.109 µM.

For `O=C(O)CCCCC(=O)NC1CCN(C(=O)OCc2cc(Cl)cc(Cl)c2)CC1` [Example 10, 6-((1-(((3,5-Dichlorobenzyl)oxy)carbonyl)piperidin-4-yl)amino)-6-oxohexanoic acid], the IC50 amounted to 0.543 µM.

As for `CCOc1c(NCCC2CN(C(=O)OCc3cc(Cl)cc(Cl)c3)CCO2)c(=O)c1=O` (centres unmarked) [Example 11, 3,5-Dichlorobenzyl 2-(2-((2-ethoxy-3,4-dioxocyclobut-1-en-1-yl)amino)ethyl)morpholine-4-carboxylate], the IC50 amounted to 0.051 µM.

As for `O=C(NCCC1CN(C(=O)OCc2cc(Cl)cc(Cl)c2)CCO1)c1c[nH]c(=O)o1` (centres unmarked) [Example 12, 3,5-Dichlorobenzyl 2-(2-(2-oxo-2,3-dihydrooxazole-5-carboxamido)ethyl)morpholine-4-carboxylate], the IC50 is 0.52 µM.

In the case of `CN(CCC1CN(C(=O)OCc2cc(Cl)cc(Cl)c2)CCO1)C(=O)c1c[nH]c(=O)o1` (centres unmarked) [Example 13, 3,5-Dichlorobenzyl 2-(2-(N-methyl-2-oxo-2,3-dihydrooxazole-5-carboxamido)ethyl)morpholine-4-carboxylate], the IC50 was determined as 0.828 µM.

For the compound `CCOc1c(N(C)CCC2CN(C(=O)OCc3cc(Cl)cc(Cl)c3)CCO2)c(=O)c1=O` (centres unmarked) [Example 14, 3,5-Dichlorobenzyl 2-(2-((2-ethoxy-3,4-dioxocyclobut-1-en-1-yl)(methyl)amino)ethyl)morpholine-4-carboxylate], the IC50 was 0.54 µM.

Regarding `CN(CCC1CCN(C(=O)OCc2cc(Cl)cc(Cl)c2)CC1)C(=O)c1c[nH]c(=O)s1` [Example 15, 3,5-Dichlorobenzyl 4-(2-(N-methyl-2-oxo-2,3-dihydrothiazole-5-carboxamido)ethyl)piperidine-1-carboxylate], the IC50 came out at 0.029 µM.

For the compound `O=C(NCCC1CCN(C(=O)OCc2cc(Cl)cc(Cl)c2)CC1)c1nn[nH]n1` [Example 16, 3,5-Dichlorobenzyl 4-(2-(2H-tetrazole-5-carboxamido)ethyl)piperidine-1-carboxylate], the IC50 worked out at 0.596 µM.

For `O=C(CCCc1c[nH]nn1)NC1CCN(C(=O)OCc2cc(Cl)cc(Cl)c2)CC1` [Example 17, 3,5-Dichlorobenzyl 4-(4-(1H-1,2,3-triazol-4-yl)butanamido)piperidine-1-carboxylate], the IC50 is 0.002 µM.

As for `CN(C(=O)CCCc1c[nH]nn1)C1CCN(C(=O)OCc2cc(Cl)cc(Cl)c2)CC1` [Example 18, 3,5-Dichlorobenzyl 4-(N-methyl-4-(1H-1,2,3-triazol-4-yl)butanamido)piperidine-1-carboxylate], the IC50 came out at 0.094 µM.

For the compound `O=C(NCCC1CCN(C(=O)OCc2cc(Cl)cc(Cl)c2)CC1)c1c[nH]c(=O)o1` [Example 21, 3,5-Dichlorobenzyl 4-(2-(2-oxo-2,3-dihydrooxazole-5-carboxamido)ethyl)piperidine-1-carboxylate], the 50% inhibitory concentration (IC50) was determined as 0.106 µM.

Consider `O=C(CCc1cc(O)no1)NCCC1CCN(C(=O)OCc2cc(Cl)cc(Cl)c2)CC1` [Example 22, 3,5-Dichlorobenzyl 4-(2-(3-(3-hydroxyisoxazol-5-yl)propanamido)ethyl)piperidine-1-carboxylate], for which the IC50 is 0.586 µM.

Regarding `O=C(CCc1cc(O)no1)NC1CCN(C(=O)OCc2cc(Cl)cc(Cl)c2)CC1` [Example 23, 3,5-Dichlorobenzyl 4-(3-(3-hydroxyisoxazol-5-yl)propanamido)piperidine-1-carboxylate], the IC50 was 0.396 µM.

Regarding `CN(CCC1CCN(C(=O)OCc2cc(Cl)cc(Cl)c2)CC1)C(=O)c1coc(=O)[nH]1` [Example 24, 3,5-Dichlorobenzyl 4-(2-(N-methyl-2-oxo-2,3-dihydrooxazole-4-carboxamido)ethyl)piperidine-1-carboxylate], the IC50 is 0.624 µM.

As for `CN(CCC1CCN(C(=O)OCc2cc(Cl)cc(Cl)c2)CC1)C(=O)c1cc(O)[nH]n1` [Example 25, 3,5-Dichlorobenzyl 4-(2-(5-hydroxy-N-methyl-1H-pyrazole-3-carboxamido)ethyl)piperidine-1-carboxylate], the IC50 is 0.52 µM.

With `CN(CCCN1CCN(C(=O)OCc2cc(Cl)cc(Cl)c2)CC1)C(=O)c1c[nH]c(=O)o1` [Example 26, 3,5-Dichlorobenzyl 4-(3-(N-methyl-2-oxo-2,3-dihydrooxazole-5-carboxamido)propyl)piperazine-1-carboxylate], the IC50 was found to be 0.156 µM.

On to `O=C(NCCN1CCN(C(=O)OCc2cc(Cl)cc(Cl)c2)CC1)c1c[nH]c(=O)o1` [Example 27, 3,5-Dichlorobenzyl 4-(2-(2-oxo-2,3-dihydrooxazole-5-carboxamido)ethyl)piperazine-1-carboxylate], for which the IC50 was determined as 0.375 µM.

For the compound `CN(CCC1CCN(C(=O)OCc2cc(Cl)cc(Cl)c2)CC1)C(=O)c1noc(=O)[nH]1` [Example 28, 3,5-Dichlorobenzyl 4-(2-(N-methyl-5-oxo-4,5-dihydro-1,2,4-oxadiazole-3-carboxamido)ethyl)piperidine-1-carboxylate], the IC50 was found to be 0.786 µM.

With `CN(CCC1CCN(C(=O)OCc2cc(Cl)cc(Cl)c2)CC1)C(=O)c1nn[nH]n1` [Example 29, 3,5-Dichlorobenzyl 4-(2-(N-methyl-2H-tetrazole-5-carboxamido)ethyl)piperidine-1-carboxylate], the IC50 turned out to be 0.541 µM.

Regarding `CN(CCC1CCN(C(=O)/C=C/c2cc(Cl)cc(Cl)c2)CC1)C(=O)c1c[nH]c(=O)o1` [Example 30, (E)-N-(2-(1-(3-(3,5-Dichlorophenyl)acryloyl)piperidin-4-yl)ethyl)-N-methyl-2-oxo-2,3-dihydrooxazole-5-carboxamide], the IC50 stood at 0.274 µM.

For `O=C(NCCC1CCN(C(=O)/C=C/c2cc(Cl)cc(Cl)c2)CC1)c1c[nH]c(=O)o1` [Example 31, (E)-N-(2-(1-(3-(3,5-Dichlorophenyl)acryloyl)piperidin-4-yl)ethyl)-2-oxo-2,3-dihydrooxazole-5-carboxamide], the IC50 was found to be 0.387 µM.

Consider `O=C(CCc1cc(O)no1)NCC1CCN(C(=O)OCc2cc(Cl)cc(Cl)c2)CC1` [Example 33, 3,5-Dichlorobenzyl 4-((3-(3-hydroxyisoxazol-5-yl)propanamido)methyl)piperidine-1-carboxylate], for which the IC50 worked out at 0.131 µM.

Regarding `O=C(NCCCN1CCN(C(=O)OCc2cc(Cl)cc(Cl)c2)CC1)c1c[nH]nn1` [Example 34, 3,5-Dichlorobenzyl 4-(3-(1H-1,2,3-triazole-4-carboxamido)propyl)piperazine-1-carboxylate], the concentration for half-maximal inhibition (IC50) was found to be 0.282 µM.

For `CN(CCC1CCN(C(=O)OCc2cc(Cl)cc(Cl)c2)CC1)C(=O)c1c[nH]nn1` [Example 35, 3,5-Dichlorobenzyl 4-(2-(N-methyl-1H-1,2,3-triazole-4-carboxamido)ethyl)piperidine-1-carboxylate], the concentration for half-maximal inhibition (IC50) was 0.175 µM.
